Two compounds from patent US10765687B2, “Methods and compounds to inhibit enveloped virus release” (Northwestern University, priority 2012, dated 2020) can be followed below.

For data set [1], the system named is COS-1 cells. Conditions: K21 100 μM, N20 20 μM; for Cytotoxicity, average of the independent experiments: average in parentheses, DMSO 21%; for Cytotoxicity (blue cells/total cells x 100): single count, DMSO 24%, 18%. The procedure: The standard trypan blue assay, where dead cells are blue when visualized under a light microscope, was used to determine the percent of dead cells in the culture. Briefly, cells from a well of DMSO-treated, K21-treated and N20-treated samples were dislodged from the well with a stream of 1 ml PBS, collected, pelleted at 200 rpm for 2 min, and suspended in 300 μl trypsin-EDTA, incubated at 37° C. for 30 min. A diluted cell suspension was prepared by mixing 200 μl of the trypsin-treated cell suspension and 800 μl of PBS was used for the assay. For the assay itself: from the 1 ml of diluted cell suspension, 50 μl was taken an placed on paraffin and to this was mixed in 50 μl of 0.4% Trypan Blue dye in PBS, after exactly 2 minutes later, the mixture was loaded on a hematocytometer. The hematocytometer was placed on the light microscope stage and a blue cell count and an all cells count (blue and not blue cells) obtained. Two 50 μl aliquots were counted per sample.

The subject of data set [2] is COS-1 cells. The data set can be described thus: Cell growth based on cell lysate actin levels (Western). The following applies: versus DMSO-treated. As for the experimental part:
The levels of actin of cell lysates prepared from DMSO-treated, […]-treated and N20-treated cells were determined by SDS-PAGE followed by Western analysis where the immunoblot were probed with mouse anti-actin antibody.

For data set [3], the system named is HIV-1. In words: Specific infectivity by MAGI assay. It is filed as cell-based. Conditions: versus DMSO controls. As for the experimental part: The amount of infectious virus normalized to ng of p24 obtained from the ELISA assay in the tissue cultures was determined by multinuclear activation of a galactosidase indicator (MAGI) assay. In this assay, infectious unit is scored by the blue color that is assumed by infected MAGI cells (Hela cells that have been engineered to express the indicator when the infecting particle is able to simulated natural infection up until expression of HIV-1 Tat).

Data set [4] addresses T1, WWP2 (SEQ ID NO:24) (Homo sapiens, UniProt O00308).
T1 construct: poly-His (pET28b leader with thrombin site) (N, cleaved yes); made in house; host or cells: E. coli BL21 DE3
In words: Epic label-free binding assay of compounds to immobilized WWP2. The following applies: Epic label-free binding, WWP2 as target; read-out: Kd. As for the experimental part: Another preferred embodiment of an in vitro screening method is depicted in FIG. 3. In this method, the ability of the candidate compound 204 to directly interact with the cellular ESCRT-linked component protein (for example, Nedd4 family of polypeptides [for example, WWP1 (SEQ ID NO:29), WWP2 (SEQ ID NO:24), Nedd4 L, among others]) or TGS101 is evaluated. According to this embodiment, a cellular ESCRT component protein 202 is preferably immobilized to a substrate 201 (for example, a microtiter plate) via a linking group 203 (for example, an amine group). The substrate preferably includes an optional reference area that provides a control to prevent non-specific interactions with non-mobilized ESCRT complex protein 202 with substrate 201. The substrate 201 is washed and irradiated with broadband light so that a baseline refractive index is measured. Test compound 204 is added to the system to permit its binding to the immobilized ESCRT component protein 202 to form a resultant associative complex 205. The substrate 201 is irradiated with broadband light again to detect a change in the wavelength of the reflected light.
High sensitivity biochemical plates (PerkinElmer Cat. No. 6057468) are used in WWP2 (SEQ ID NO:24) binding assay to maximize protein immobilization. […] Because compound stocks are in DMSO that affects the Epic label-free readout, the compound plates were prepared by Echo550 acoustic dispenser to keep DMSO content balanced for all wells. […]
The binding of compounds to WWP2 (SEQ ID NO:24) was measured on the EnSpire label-free plate reader. After 25 minutes of thermal equilibration, a baseline reading was taken on the label-free plates with protein immobilized in assay buffer. […] The final reading was taken after 25 min of thermal equilibration and over a period of 60 minutes. The label-free responses were measured as shifts in reflected wavelength and were expressed in picometers (pm). Results were analyzed using the EnSpire label-free user interface software. […]

Data set [5] concerns HIV-1. In words: Cell-based inhibition assay in transfected COS-1 cells, ELISA p24 capture assay of tissue culture media. Conditions: K21 100 μM, N20 20 μM, 24-hr treatment. The procedure:
COS-1 cells were seeded on twelve-well plates and grown in 1 ml of DMEM with 10% fbs and 1% Penicillin/Streptomycin. The following day, well were confluency was ˜60% were selected for co-transfection with an NL4-3 derived construct (pdeltaEnv) and pIIIEnv for expression of HIV-1 virus-encoded proteins. Inhibitor treatment was done on two sets of transfected cells: one, at 5 hr post-transfection and the other, at 24 hours post-transfection. In each case, the tissue culture media was removed and replaced with treatment Nedd4 inhibitor (100 μM final concentration for K21 and 20 μM final concentration for N20) or DMSO control (1% final concentration) in DMEM with 10% FBS, 1% Penicillin/Streptomycin, 5 mM MgCl2, and 0.5 mM CaCl2. After a 24-hr treatment period, the tissue culture media was collected, cleared of debris by running through a 0.45 um syringe filter and analyzed for amount of virus particles by Elisa p24 capture assay.
At 100 μM, K21 was inhibitory to virus particle release. […] This was true whether the inhibitor was added at 5 hrs post-transfection or at 24 hrs post transfection. At 20 μM, N20 was also exerted an inhibitory effect on virus particle release but it was different from that of K21.
(In an ELISA, binding on a coated surface is turned into a signal by an enzyme label.)

Where [6] appears, read: inhibitor added 5 hrs post-transfection.
Where [7] appears, read: inhibitor added 24 hrs post-transfection.

Values joined by “and” are separate entries in the source; they are usually repeats but may differ in a detail not shown here. Identical values can stand only once. Like-named read-outs stand apart in the source and are kept apart here.

T1 sequence (O00308 with tags, fused parts or gaps): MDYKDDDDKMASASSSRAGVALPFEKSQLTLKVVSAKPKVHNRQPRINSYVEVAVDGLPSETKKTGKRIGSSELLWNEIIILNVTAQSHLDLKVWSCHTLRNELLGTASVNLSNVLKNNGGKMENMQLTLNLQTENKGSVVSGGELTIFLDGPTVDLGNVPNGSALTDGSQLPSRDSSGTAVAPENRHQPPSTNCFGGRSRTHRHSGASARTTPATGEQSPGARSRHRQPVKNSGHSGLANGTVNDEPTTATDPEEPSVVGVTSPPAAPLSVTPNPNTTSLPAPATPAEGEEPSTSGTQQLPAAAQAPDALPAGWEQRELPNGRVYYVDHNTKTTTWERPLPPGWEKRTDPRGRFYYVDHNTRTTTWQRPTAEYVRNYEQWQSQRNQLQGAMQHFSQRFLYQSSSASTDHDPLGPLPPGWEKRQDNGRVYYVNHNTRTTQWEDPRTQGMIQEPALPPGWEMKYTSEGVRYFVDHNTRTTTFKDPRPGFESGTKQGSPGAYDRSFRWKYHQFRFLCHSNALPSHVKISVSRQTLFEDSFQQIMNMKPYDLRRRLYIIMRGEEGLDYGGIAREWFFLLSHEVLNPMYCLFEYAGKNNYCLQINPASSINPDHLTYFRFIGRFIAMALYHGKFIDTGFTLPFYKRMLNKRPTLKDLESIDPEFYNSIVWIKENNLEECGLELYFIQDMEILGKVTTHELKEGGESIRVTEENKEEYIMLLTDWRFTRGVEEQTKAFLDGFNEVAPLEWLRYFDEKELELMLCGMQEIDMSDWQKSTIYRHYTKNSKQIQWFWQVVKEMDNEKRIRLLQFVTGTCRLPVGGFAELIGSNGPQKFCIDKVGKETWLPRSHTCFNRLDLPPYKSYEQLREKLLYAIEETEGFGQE

The Kd is the equilibrium constant for the complex coming apart. Regarding `Cl.NC(CO)C(=O)NNCc1ccc(O)c(O)c1O` (racemic) [Benserazide Hydrochloride, (RS)-2-amino-3-hydroxy-N′-(2,3,4-trihydroxybenzyl) propanehydrazide hydrochloride], the “Cytotoxicity, average of the independent experiments” value in data set [1] is on record as “(31%)”. Also, the “Cytotoxicity (blue cells/total cells x 100)” value in data set [1] (listed as K21, hydrochloride) is 34% and 28%. In data set [2], the “Intensity of actin bands of cell lysates” value is “essentially comparable for all samples”. Further, the “Counts of blue cells per ng p24 (specific infectivity)” value in data set [3] was “comparable”. Further, the Kd in data set [4] is 7.9 µM. Further, the “Amount of virus particle detected in tissue culture media” value in data set [5] (setting [6]) and in data set [5] (setting [7]) was “reduction in the amount of virus particle detected” in each case.

For `CN(C)[C@@H]1C(O)=C(C(N)=O)C(=O)[C@@]2(O)C(=O)C3=C(O)c4c(O)cccc4[C@@](C)(O)[C@H]3[C@H](O)[C@@H]12` [Oxytetracycline, (4S,4aR,5S,5aR,6S,12aS)-4-(dimethylamino)-3,5,6,10,11,12a-hexahydroxy-6-methyl-1,12-dioxo-1,4,4a,5,5a,6,12,12a-octahydrotetracene-2-carboxamide], in data set [1], the “Cytotoxicity, average of the independent experiments” value was “(32%)”. In data set [1] (listed as N20), the “Cytotoxicity (blue cells/total cells x 100)” value was 29% and 35%. In addition, the “Intensity of actin bands of cell lysates” value in data set [2] is recorded as “essentially comparable for all samples”. In addition, the “Counts of blue cells per ng p24 (specific infectivity)” value in data set [3] is “comparable”. Also, in data set [4], the Kd stood at 10.6 µM. Also, the “Amount of virus particle detected in tissue culture media” value in data set [5] (setting [6]) is reported as “reduction in the amount of virus particle detected”; in data set [5] (setting [7]), “reduction was not seen”.
